The source of these data is patent US10597405B2, “Chemical compounds” (ASTRAZENECA AB, priority 2017, dated 2020).

The structures appear in SMILES notation.

In general, IC50 refers to the point on the concentration scale where inhibition reaches its midpoint. Higher therefore signals lower potency.

This test deals with T1, KRasG12C (Homo sapiens, UniProt P01116, G12C).
T1 construct: biotin (biotinylated); made in house
T1 sequence (P01116 1-188 isoform P01116-2 G12C): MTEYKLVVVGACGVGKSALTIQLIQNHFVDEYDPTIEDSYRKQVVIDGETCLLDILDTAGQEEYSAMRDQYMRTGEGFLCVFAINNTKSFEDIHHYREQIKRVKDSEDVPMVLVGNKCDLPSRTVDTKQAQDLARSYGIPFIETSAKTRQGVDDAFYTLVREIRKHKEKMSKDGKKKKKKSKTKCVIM
Briefly: KRasG12C functional assay (HTRF nucleotide exchange / Raf RBD binding). It counts as biochemical. The conditions noted are these: GDP loaded biotinylated KRasG12C, samples incubated 4 hrs, FRET readout; single experiment or average of two or more. The procedure:
KRasG12C Functional Assay
All enzyme and substrate solutions were prepared in assay buffer containing 20 mM HEPES (pH 7.5), 5 mM MgCl2, 150 mM NaCl, and 0.01% Tween 20. […] In a separate mix 20 nM GST-Raf Ras binding domain (GST-Raf RBD, purified in house) and 4 μg/ml anti-GST XL665 antibody (Cisbio) was prepared in assay buffer containing 50 mM Potassium Fluoride and 0.05 mg/ml BSA and equilibrated for 4 hours before adding 0.6 μM Guanosine 5′-[γ-thio]triphosphate (GTPγS, Sigma) and 0.08 μM SOS (purified in house). 5 μl of the GST-RAF RBD mix was then dispensed into each well of the assay plate. […] This is detected simultaneously via the specific binding interaction between active GTPγS KRas^G12C with GST-Raf RBD which brings the europium and XL665 into close proximity enabling an increased FRET signal to be detected on a Pherastar (BMG) plate reader equipped with the HTRF filter module. […] IC50 values were calculated from normalised dose-response response FRET data curve fitted in Genedata screener (Basel, Switzerland).
`C=CC(=O)N1CCN2c3c(cnc4c(F)c(-c5c(C)ccc6[nH]c(=O)n(C)c56)c(Cl)cc34)OC[C@H]2C1` (single isomer, unassigned) [Compound 84]: the IC50 was 2400 nM.
`C=CC(=O)N1CCN2c3c(cnc4c(F)c(-c5c(C)cccc5O)c(Cl)cc34)N(C)C(=O)[C@H]2C1` (single isomer, unassigned) [Compound 54] showed an IC50 of 40 nM.
Under `C=CC(=O)N1C[C@@H]2COc3cnc4c(F)c(-c5c(O)cccc5F)c(F)cc4c3N2C[C@H]1C` (single isomer, unassigned) [Compound 64] stands 20 nM; under `C=CC(=O)N1CCN2c3c(cnc4c(F)c(-c5c(O)ccc(F)c5F)c(Cl)cc34)N(C)C(=O)[C@H]2C1` (single isomer, unassigned) [Compound 58], 20 nM.
`C=CC(=O)N1CCN2c3c(cnc4c(F)c(-c5c(O)cccc5Cl)c(Cl)cc34)N(C)C(=O)[C@H]2C1` (single isomer, unassigned) [Compound 51] yielded an IC50 of more than 100000 nM.
For `C=CC(=O)N1CCN2c3c(cnc4c(F)c(-c5c(O)ccc(F)c5F)c(Cl)cc34)N(C)C(=O)[C@H]2C1` (single isomer, unassigned) [Compound 57], the IC50 turned out to be 8900 nM. This lies in the single-digit micromolar range.
`C=CC(=O)N1C[C@@H]2C(=O)Nc3cnc4c(F)c(-c5c(O)cccc5F)c(Cl)cc4c3N2C[C@H]1C` (single isomer, unassigned) [Compound 30] came in with a half-maximal inhibitory concentration (IC50) of 4600 nM.
`C=CC(=O)N1CCN2c3c(cnc4c(F)c(-c5c(O)cccc5F)c(Cl)cc34)NC(=O)[C@H]2C1` (single isomer, unassigned) [Compound 89] showed an IC50 of 3600 nM.
With `C=CC(=O)N1CCN2c3c(cnc4c(F)c(-c5c(C)cccc5O)c(Cl)cc34)N(C)C(=O)[C@H]2C1` (single isomer, unassigned) [Compound 53], the IC50 was found to be 37600 nM. This IC50 lies about 10-fold higher than the previous one.
As to `C=CC(=O)N1CCN2c3c(cnc4cc(-c5c(O)cccc5F)c(Cl)c(F)c34)N(C)C(=O)[C@H]2C1` [Compound 59, (4aR)-11-Chloro-12-fluoro-10-(2-fluoro-6-hydroxyphenyl)-6-methyl-3-(prop-2-enoyl)-2,3,4,4a-tetrahydro-1H-pyrazino[1′,2′:4,5]pyrazino[2,3-c]quinolin-5(6H)-one], the IC50 came out at 202 nM.
In turn, `C=CC(=O)N1C[C@@H]2C(=O)Nc3cnc4c(F)c(-c5c(O)cccc5F)c(Cl)cc4c3N2C[C@H]1C` (single isomer, unassigned) [Compound 31] gave an IC50 of 4 nM.
Under `C=CC(=O)N1CCN2c3c(cnc4cc(-c5c(C)ccc6[nH]c(=O)[nH]c56)c(Cl)cc34)OC[C@H]2C1` (single isomer, unassigned) [Compound 72] stands 8300 nM; under `C=CC(=O)N1C[C@@H]2COc3cnc4c(C)c(-c5c(O)cccc5F)c(Cl)cc4c3N2C[C@H]1C` (single isomer, unassigned) [Compound 41], 1500 nM.
For `C=CC(=O)N1CCN2c3c(cnc4cc(-c5c(C)ccc6[nH]ncc56)c(Cl)cc34)OC[C@H]2C1` (single isomer, unassigned) [Example 4], the IC50 was 1700 nM.
On to `C=CC(=O)N1CCN2c3c(cnc4c(F)c(-c5c(C)ccc6[nH]c(=O)oc56)c(Cl)cc34)OC[C@H]2C1` (single isomer, unassigned) [Compound 47], for which the IC50 turned out to be 31 nM.
`C=CC(=O)N1CCN2c3c(cnc4c(F)c(-c5c(C)ccc6[nH]cnc56)c(Cl)cc34)N(C)C(=O)[C@H]2C1` (single isomer, unassigned) [Compound 25] yielded an IC50 of 28 nM. This IC50 and that of the compound before are within 1.5-fold of each other.
The figure for `C=CC(=O)N1CCN2c3c(cnc4c(F)c(-c5c(O)cccc5F)c(F)cc34)N(C)C(=O)[C@H]2C1` [Compound 42, (4aR)-3-Acryloyl-9,11-difluoro-10-(2-fluoro-6-hydroxyphenyl)-6-methyl-2,3,4,4a-tetrahydro-1H-pyrazino[1′,2′:4,5]pyrazino[2,3-c]quinolin-5(6H)-one] is 77 nM.
`C=CC(=O)N1CCN2c3c(cnc4c(C)c(-c5c(O)cccc5F)c(C)cc34)N(C)C(=O)[C@H]2C1` (single isomer, unassigned) [Compound 43] displayed an IC50 of more than 100000 nM.
As to `C=CC(=O)N1CCN2c3c(cnc4c(F)c(-c5c(F)cccc5CO)c(Cl)cc34)N(C)C(=O)[C@H]2C1` (single isomer, unassigned) [Compound 35], the IC50 worked out at 133 nM.
Turning to `C[C@@H]1CN2c3c(cnc4c(F)c(-c5c(O)cccc5F)c(Cl)cc34)N(C)C(=O)[C@H]2CN1C(=O)/C=C/CN(C)C` (single isomer, unassigned) [Compound 29], the IC50 was determined as 25 nM.
In turn, `C=CC(=O)N1CCN2c3c(cnc4c(F)c(-c5c(C)ccc6[nH]ncc56)c(Cl)cc34)N(C)C(=O)[C@H]2C1` (single isomer, unassigned) [Compound 50] returned an IC50 of 9600 nM.
`C=CC(=O)N1CCN2c3c(cnc4cc(-c5c(O)cccc5F)c(Cl)cc34)N(C)C(=O)C2(C)C1` (single isomer, unassigned) [Compound 32, 11-Chloro-10-(2-fluoro-6-hydroxyphenyl)-4a,6-dimethyl-3-(prop-2-enoyl)-2,3,4,4a-tetrahydro-1H-pyrazino[1′,2′:4,5]pyrazino[2,3-c]quinolin-5(6H)-one] came in with an IC50 of 2200 nM.
In the case of `C=CC(=O)N1CCN2c3c(cnc4cc(-c5c(C)ccc6[nH]ncc56)c(Cl)cc34)N(CCN(C)C)C[C@H]2C1` (single isomer, unassigned) [Compound 73], the IC50 is 57 nM.
The figure for `C=CC(=O)N1CCN2c3c(cnc4cc(-c5c(C)ccc6[nH]ncc56)c(Cl)cc34)OC[C@@H]2C1` (single isomer, unassigned) [Example 6] is 662 nM.
Under `C=CC(=O)N1C[C@@H]2C(=O)N(C)c3cnc4c(F)c(-c5c(C)ccc6[nH]cnc56)c(Cl)cc4c3N2C[C@H]1C` (single isomer, unassigned) [Compound 28] stands 3 nM; under `C=CC(=O)N1CCN2c3c(cnc4c(F)c(-c5c(C)ccc6[nH]c(=O)oc56)c(Cl)cc34)OC[C@H]2C1` (single isomer, unassigned) [Compound 48], 3600 nM; under `C=CC(=O)N1CCN2c3c(cnc4c(F)c(-c5c(C)ccc6[nH]c(=O)n(C)c56)c(Cl)cc34)OC[C@H]2C1` (single isomer, unassigned) [Compound 85], 10 nM.
The figure for `C=CC(=O)N1CCN2c3c(cnc4c(F)c(-c5c(C)ccc6[nH]cnc56)c(Cl)cc34)OC[C@H]2C1` (single isomer, unassigned) [Compound 78] is 7140 nM.
Take `C=CC(=O)N1CCN2c3c(cnc4c(Cl)c(-c5c(O)cccc5F)c(F)cc34)N(C)C(=O)[C@H]2C1` (single isomer, unassigned) [Compound 79]: the IC50 turned out to be 141 nM. Compared with the last compound, the IC50 is about 51-fold lower.
The compound `C=CC(=O)N1CCN2c3c(cnc4c(F)c(-c5c(F)cccc5CO)c(Cl)cc34)N(C)C(=O)[C@H]2C1` (single isomer, unassigned) [Compound 34] yielded an IC50 of 9800 nM. Against the preceding compound, the IC50 is about 70-fold higher.
Consider `C=CC(=O)N1CCN2c3c(cnc4cc(-c5c(O)cccc5F)c(Cl)cc34)N(CC)C(=O)[C@H]2C1` [Compound 90, (4aR)-11-Chloro-6-ethyl-10-(2-fluoro-6-hydroxyphenyl)-3-(prop-2-enoyl)-2,3,4,4a-tetrahydro-1H-pyrazino[1′,2′:4,5]pyrazino[2,3-c]quinolin-5(6H)-one], for which the IC50 was 333 nM.
Regarding `C=CC(=O)N1CCN2c3c(cnc4c(OC)c(-c5c(O)cccc5F)c(Cl)cc34)OC[C@H]2C1` (single isomer, unassigned) [Compound 23], the IC50 is 4200 nM.
For the compound `C=CC(=O)N1CCN2c3c(cnc4c(F)c(-c5c(C)ccc6c5C(=O)NC6)c(Cl)cc34)OC[C@H]2C1` (single isomer, unassigned) [Compound 87], the IC50 came out at 8600 nM.
The figure for `C=CC(=O)N1CCN2c3c(cnc4c(F)c(-c5c(O)cccc5Cl)c(Cl)cc34)N(C)C(=O)[C@H]2C1` (single isomer, unassigned) [Compound 52] is 14 nM.
In the case of `C=CC(=O)N1CCN2c3c(cnc4cc(-c5c(F)ccc6cc[nH]c(=O)c56)c(Cl)cc34)OC[C@H]2C1` (single isomer, unassigned) [Compound 46], the IC50 turned out to be 1100 nM.
For the compound `C=CC(=O)N1CCN2c3c(cnc4c(F)c(-c5c(C)ccc6[nH]cnc56)c(Cl)cc34)N(C)C(=O)[C@H]2C1` (single isomer, unassigned) [Compound 26], the IC50 amounted to 446 nM.
For the compound `C=CC(=O)N1CCN2c3c(cnc4c(Cl)c(-c5c(O)cccc5F)c(F)cc34)N(C)C(=O)[C@H]2C1` (single isomer, unassigned) [Compound 80], the IC50 was 14700 nM.
The figure for `C[C@@H]1CN2c3c(cnc4c(F)c(-c5c(O)cccc5F)c(Cl)cc34)OC[C@H]2CN1C(=O)/C=C/CN(C)C` (single isomer, unassigned) [Compound 37] is 21 nM; for `C=CC(=O)N1CCN2c3c(cnc4cc(-c5c(O)cccc5F)c(Cl)c(Cl)c34)N(C)C(=O)[C@H]2C1` [Compound 60, (4aR)-11,12-Dichloro-10-(2-fluoro-6-hydroxyphenyl)-6-methyl-3-(prop-2-enoyl)-2,3,4,4a-tetrahydro-1H-pyrazino[1′,2′:4,5]pyrazino[2,3-c]quinolin-5(6H)-one] it is 501 nM.
With `C=CC(=O)N1CCN2c3c(cnc4cc(-c5c(C)ccc6[nH]ncc56)c(Cl)cc34)N(CCN(C)C)C[C@H]2C1` (single isomer, unassigned) [Compound 74], the IC50 came out at 13100 nM.
